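1) Cells in 96-well plates. 2) Compound, 48 h, 5 concentrations. 3) Linear interpolation between surrounding doses. 4) Unreached endpoint = highest concentration. GI50 is the concentration that inhibits growth by half.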 Active and inactive are the calls of the source. Cut-off read from the data, not from the text of the source: active = GI50 up to about 1.1 µM and inactive = higher.
Columns and labels:
Assay in all cases: growth of human tumour cells (NCI), 48 h
[1] = system: DU-145
[2] = system: ACHN
[3] = system: T47D
[4] = system: CCRF-CEM
[5] = system: Malme-3M
[6] = system: EKVX
[7] = system: OVCAR-4
[8] = system: SF-539
[9] = system: PC-3
[10] = system: OVCAR-8
[11] = system: HCC 2998
[12] = system: MDA-N
[13] = system: MCF7
[14] = system: SR
[15] = system: KM12
[16] = system: OVCAR-3
[17] = system: TK-10
[18] = system: U-251
[19] = system: SK-MEL-28
[20] = system: HL-60

Row | SMILES | GI50 [1] | GI50 [2] | GI50 [3] | GI50 [4] | GI50 [5] | GI50 [6] | GI50 [7] | GI50 [8] | GI50 [9] | GI50 [10] | GI50 [11] | GI50 [12] | GI50 [13] | GI50 [14] | GI50 [15] | GI50 [16] | GI50 [17] | GI50 [18] | GI50 [19] | GI50 [20]
1 | Cc1cc(N(CCC#N)CCC#N)ccc1C(/N=N/c1ccc(Cl)cc1)=N\NC(=O)c1cc(Cl)ccc1O | > 100 µM (inactive) | 32.4 µM (inactive) | 31.6 µM (inactive) | 37 µM (inactive) | 62.7 µM (inactive) | 36.4 µM (inactive) | 27.1 µM (inactive) | 25 µM (inactive) | 35.2 µM (inactive) | 35.6 µM (inactive) | 29.9 µM (inactive) | > 100 µM (inactive) | 29.4 µM (inactive) | 38.7 µM (inactive) | 58.9 µM (inactive) | 19.1 µM (inactive) | 30 µM (inactive) | 37.1 µM (inactive) |  | 
2 | CC1=NN(c2cccc(Cl)c2)C2(C1=Cc1ccccc1)C(Cl)C(=O)N2c1nc2ccccc2s1 (stereo not drawn) | 15 µM (inactive) | 16.7 µM (inactive) | 18.5 µM (inactive) | 22.1 µM (inactive) |  | 33.9 µM (inactive) | 19.1 µM (inactive) | 33.2 µM (inactive) | 16.8 µM (inactive) | 32.1 µM (inactive) | 17.3 µM (inactive) | 19.8 µM (inactive) | 22.2 µM (inactive) | 24.2 µM (inactive) | 17.3 µM (inactive) | 16.3 µM (inactive) | 37.8 µM (inactive) | 14.1 µM (inactive) | 27.2 µM (inactive) | 22.1 µM (inactive)
3 | CCCCCCCCCCCCOP(=O)(O)OCC(N)C(=O)O (stereo not drawn) | 83.4 µM (inactive) | 34.1 µM (inactive) | > 100 µM (inactive) |  | > 100 µM (inactive) | 69.8 µM (inactive) | 39 µM (inactive) | 22.3 µM (inactive) | 15.3 µM (inactive) | 38.5 µM (inactive) | 29.8 µM (inactive) | 21.2 µM (inactive) | 39.3 µM (inactive) | 22 µM (inactive) |  | 17.3 µM (inactive) | 24.7 µM (inactive) | 11.9 µM (inactive) | 94.8 µM (inactive) | 17.4 µM (inactive)
4 | CCOC(=O)CCCSCCCC(=O)CCCSCCCC(=O)OCC | > 100 µM (inactive) |  | > 100 µM (inactive) | > 100 µM (inactive) |  | > 100 µM (inactive) | > 100 µM (inactive) | > 100 µM (inactive) | > 100 µM (inactive) | > 100 µM (inactive) | > 100 µM (inactive) | > 100 µM (inactive) | > 100 µM (inactive) | > 100 µM (inactive) | > 100 µM (inactive) | > 100 µM (inactive) | > 100 µM (inactive) | > 100 µM (inactive) | > 100 µM (inactive) | > 100 µM (inactive)
5 | CSC1=N/C(=C\c2ccco2)C(=O)N1CN1CCOCC1 | 42.3 µM (inactive) | 43 µM (inactive) | 48.1 µM (inactive) | 30.4 µM (inactive) | > 46.1 µM (inactive) | > 79.1 µM (inactive) | > 100 µM (inactive) | 17.2 µM (inactive) | > 93.8 µM (inactive) | 58.9 µM (inactive) | 25.7 µM (inactive) | > 100 µM (inactive) | 23 µM (inactive) | 41.3 µM (inactive) | > 70.1 µM (inactive) | > 100 µM (inactive) | > 58.1 µM (inactive) | > 100 µM (inactive) | > 71.6 µM (inactive) | 
6 | O=C1O[C@]2(c3ccccc3)C(c3ccccc3)=C[C@]2(C(=O)c2ccccc2)C1=O | 0.292 µM (active) | 35.2 µM (inactive) | 1.12 µM (inactive) |  | 65.2 µM (inactive) | 34 µM (inactive) | 39.1 µM (inactive) | 23 µM (inactive) | 39.1 µM (inactive) | 29.8 µM (inactive) | 20.3 µM (inactive) | 31.9 µM (inactive) | 28.4 µM (inactive) | 10.7 µM (inactive) | 35.8 µM (inactive) | 32.6 µM (inactive) | 27 µM (inactive) | 31.6 µM (inactive) | 35.6 µM (inactive) | 5.98 µM (inactive)
7 | CC(=O)/N=C1/N(/C=C2\C(=O)Oc3ccccc3C2=O)C(=O)/C(=C/c2cccc(Cl)c2Cl)N1C | 41.8 µM (inactive) | 13.7 µM (inactive) | 32.1 µM (inactive) | 11.1 µM (inactive) | 33.6 µM (inactive) | 28.9 µM (inactive) |  | 4.42 µM (inactive) | 35.3 µM (inactive) | 19.7 µM (inactive) | 16.7 µM (inactive) | 42.8 µM (inactive) | 25.7 µM (inactive) | 10.8 µM (inactive) | 26.7 µM (inactive) | 1.39 µM (inactive) |  | 23.1 µM (inactive) | 29 µM (inactive) | 3.99 µM (inactive)
8 | CC(C)C[C@H](NC(=O)[C@H](Cc1ccccc1)NC(=O)c1cnccn1)B(O)O [BORTEZOMIB] | < 0.01 µM (active) | < 0.01 µM (active) | < 0.01 µM (active) |  | < 0.01 µM (active) | < 0.01 µM (active) | < 0.01 µM (active) | < 0.01 µM (active) | < 0.01 µM (active) | < 0.01 µM (active) | < 0.01 µM (active) | < 0.01 µM (active) | < 0.01 µM (active) | < 0.01 µM (active) | < 0.01 µM (active) | < 0.01 µM (active) | < 0.01 µM (active) | < 0.01 µM (active) | < 0.01 µM (active) | < 0.01 µM (active)
